Common to all, as to format: in vivo
The subject of test [1] is Musca domestica (houseflies - adults). Description: Contact test on houseflies - adults (MD), Cotton wool/sugar, mortality. As to conditions: 72 h, contact, 3 days, read-out: MD grading of mortality. The method, boiled down: (§1)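 Compound dissolved in acetone, diluted with water containing 0.01% by weight wetting agent to 500, 250 or 100 ppm. Pests held on host plant or foodstuff; pests and/or medium treated. Mortality scored one to three days later as grade A (80-100%), B (50-79%) or C (<50%) mortality or knockdown.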

Test [2] has as its system Tetranychus urticae (spider mites - adult). In words: Contact test on spider mites - adult (TUa), French bean leaf, mortality. As to conditions: 72 h, contact, 3 days, read-out: TUa grading of mortality. A digest of the protocol:
as §1

The test system of test [3] is Diabrotica balteata (rootworm larvae). In words: Residual test on rootworm larvae (DB), Filter paper/maize seed, mortality. As to conditions: 48 h, residual, 2 days, read-out: DB grading of mortality. A digest of the protocol: as §1
The subject of test [4] is Blattella germanica (cockroach nymphs). In words: Contact test on cockroach nymphs (BG/C), Plastic pot, mortality. As to conditions: 48 h, contact, 2 days, read-out: BG/C grading of mortality. A digest of the protocol:
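Cockroach nymphs and/or their medium were treated with aqueous preparations at 500, 250 or 100 ppm (acetone solution diluted in water with 0.01% Lissapol NX wetting agent). Mortality or knockdown was assessed typically 1–3 days later and graded A (80–100%), B (50–79%) or C (<50%).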

For test [5], the system named is Tetranychus urticae (spider mites - ova). Description: Contact test on spider mites - ova (TUe), French bean leaf, mortality. As to conditions: 144 h, contact, 6 days, read-out: TUe grading of mortality. A digest of the protocol: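 Graded read-out: A 80-100%, B 50-79%, C below 50% mortality or knockdown, assessed usually 1-3 days post-treatment. Liquid preparations at 500, 250 or 100 ppm by weight, from acetone solution diluted in water with 0.01% wetting agent, applied to pests and/or their host plant or food medium.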

Test [6] has as its system Nephotettix cincticeps (green leaf hopper - nymphs). In words: Contact test on green leaf hopper nymphs (NC), Rice plant, mortality. As to conditions: 48 h, contact, 2 days, read-out: NC grading of mortality. The method, boiled down: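 Product dissolved in acetone, diluted in water with 0.01% wetting agent to 500, 250 or 100 ppm; nymphs and/or host rice plants treated. Mortality or knockdown assessed 1–3 days later, graded A (80-100%), B (50-79%), C (<50%).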

For test [7], the system named is Spodoptera exigua (lesser army worm - larvae). Description: Residual test on lesser army worm larvae (SP), Cotton leaf, mortality. As to conditions: 48 h, residual, 2 days, read-out: SP grading of mortality. A digest of the protocol:
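Product dissolved in acetone and diluted in water with 0.01% wetting agent to 500, 250 or 100 ppm; larvae and/or cotton leaf host treated. Mortality or knockdown scored one to three days later and graded A (80-100%), B (50-79%) or C (<50%).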

The test system of test [8] is Heliothis virescens (tobacco budworm - larvae). Description: Residual test on tobacco budworm larvae (HV), Cotton leaf, mortality. As to conditions: 48 h, read-out: HV grading of mortality. A digest of the protocol:
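Product in acetone diluted with water containing 0.01% Lissapol NX, at 500, 250 or 100 ppm; pests and/or host medium (here cotton leaf) treated. Mortality scored one to three days later, graded A (80-100%), B (50-79%), C (<50%).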

Test [9] has as its system Myzus persicae (aphids). Description: Contact test on aphids (MP), Chinese Cabbage leaf, mortality. As to conditions: 72 h, contact, 3 days, read-out: MP grading of mortality. The method, boiled down: as §1
Test [10] deals with Musca domestica (houseflies - adults). In words: Knockdown test on houseflies - adults (MD/KD), Cotton wool/sugar. As to conditions: 4 hours, read-out: MD/KD grading of knockdown. The method, boiled down: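 Adult houseflies exposed to the compound at 500, 250 or 100 ppm in acetone/water with 0.01% wetting agent, on a cotton wool/sugar medium. Knockdown and mortality assessed, graded A (80-100%), B (50-79%) or C (<50%).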

Consider `COc1c(F)c(COC(C)C)c(F)c(F)c1COC(=O)C(c1cnc(C(C)(C)C)nc1)C(C)(C)C` (racemic) [Compound 190, 2,3,5-trifluoro-6-methoxy-4-[(1-methyl)ethoxy]methylbenzyl (RS)-2-[2-(1,1-dimethylethyl)pyrimidin-5-yl]-3,3-dimethylbutanoate], for which the mortality at 500 ppm in [1] was under 50%; in test [2], 80 to 100%; in [3], under 50%; in test [4] it was under 50%; in test [5], under 50%; in [6], 80 to 100%. Besides, the mortality at 500 ppm in test [7], in [8] and in test [9] was 80 to 100% each time. Moreover, the pest or weed control at 500 ppm in test [10] is 80 to 100%.
Turning to `COc1c(F)c(COc2ccccc2)c(F)c(F)c1COC(=O)C(c1cnc(C(C)(C)C)nc1)C(C)(C)C` (racemic) [Compound 193, 2,3,5-trifluoro-6-methoxy-4-(phenoxymethyl)benzyl (RS)-2-[2-(1,1-dimethylethyl)pyrimidin-5-yl]-3,3-dimethylbutanoate], the mortality at 500 ppm in test [1] is under 50%; in test [2], 80 to 100%; in test [3], under 50%; in [4], under 50%; in [5] it was under 50%; in test [6] it was 50 to 79%. For the same compound, the results for the mortality at 500 ppm in [7], in [8] and in test [9] were 80 to 100%, under 50% and 80 to 100%, respectively. Further, in test [10], the pest or weed control at 500 ppm was under 50%.
Take `COCc1c(F)c(F)c(COC(=O)C(c2cnc(C3(C)CCCCC3)nc2)C(C)(C)C)c(F)c1F` (racemic) [Compound 207, 2,3,5,6-tetrafluoro-4-(methoxymethyl)benzyl (RS)-2-[2-(1-methylcyclohexyl)pyrimidin-5-yl]-3,3-dimethylbutanoate]: the mortality at 500 ppm was under 50% in [1]; 80 to 100% in [2]; under 50% in test [3]; under 50% in [4]; under 50% in [5]; 80 to 100% in test [6]. The mortality at 500 ppm is under 50% in test [7], under 50% in test [8] and 80 to 100% in test [9]. Besides, the pest or weed control at 500 ppm in test [10] fell in the range of 80 to 100%.
Regarding `C=CCC(C(=O)OCc1c(F)c(F)c(COC)c(F)c1F)c1cnc(C(C)(C)C)nc1` (racemic) [Compound 212, 4-(methoxymethyl)-2,3,5,6-tetrafluorobenzyl (RS)-2-[2-(1,1-dimethylethyl)pyrimidin-5-yl]pent-4-enoate], the mortality at 500 ppm in [1] was under 50%; in test [2] it was 80 to 100%; in test [3], under 50%; in test [4], under 50%; in [5], under 50%; in test [6] it was 80 to 100%. Also, the results for the mortality at 500 ppm in [7], in test [8] and in [9] were 50 to 79%, under 50% and 80 to 100%, respectively. For the same compound, the pest or weed control at 500 ppm in test [10] lay within 80 to 100%.
`CC(OC(=O)C(c1cnc(-c2ccccc2)nc1)C(C)(C)C)c1cccc(Oc2ccccc2)n1` (racemic) [Compound 82, (RS)-1-(6-phenoxpyrid-2-yl)ethyl (RS)-2-(2-phenylpyrimidin-5-yl)-3,3-dimethylbutanoate]: the mortality at 1000 ppm in test [1] (1000 ppm) is under 50%; in test [2] (1000 ppm) it was 80 to 100%; in [3] (1000 ppm), under 50%; in test [4] (1000 ppm) it was under 50%; in test [5] (1000 ppm), under 50%; in [6] (1000 ppm), 80 to 100%. The mortality at 1000 ppm in test [7] (1000 ppm), in test [8] and in test [9] (1000 ppm) was 80 to 100% throughout. Besides, the pest or weed control at 1000 ppm in test [10] (1000 ppm) lay within 80 to 100%.
As for `CCOc1c(F)c(COc2ccccc2)c(F)c(F)c1COC(=O)C(c1cnc(C(C)(C)C)nc1)C(C)(C)C` (racemic) [Compound 194, 2,3,5-trifluoro-6-ethoxy-4-(phenoxymethyl)benzyl (RS)-2-[2-(1,1-dimethylethyl)pyrimidin-5-yl]-3,3-dimethylbutanoate], the mortality at 500 ppm in test [1] is under 50%; in test [2], 80 to 100%; in test [3], under 50%; in test [4] it was under 50%; in test [5], under 50%; in [6], under 50%. The figures for the mortality at 500 ppm in test [7], in test [8] and in test [9] were 80 to 100%, under 50% and under 50%, respectively. In addition, in test [10], the pest or weed control at 500 ppm was under 50%.
Turning to `CCCc1c(F)c(F)c(COC(=O)C(c2cnc(C(C)(C)C)nc2)C(C)(C)C)c(F)c1F` (racemic) [Compound 168, 4-(n-propyl)-2,3,5,6-tetrafluorobenzyl (RS)-2-[2-(1,1-dimethylethyl)pyrimidin-5-yl]-3,3-dimethylbutanoate], the mortality at 500 ppm in [1] was under 50%; in [2], 80 to 100%; in test [3], under 50%; in [4] it was under 50%; in test [5], 80 to 100%; in test [6], 80 to 100%. For the same compound, the mortality at 500 ppm in test [7] was in the range of 50 to 79%; in [8], 50 to 79%; in test [9], 80 to 100%. Also, the pest or weed control at 500 ppm in [10] is under 50%.
On to `Cc1ncc(C(C(=O)OCc2ccc(F)c(Oc3ccccc3)c2)C(C)(C)C)cn1` (racemic) [Compound 206, 4-fluoro-3-phenoxybenzyl (RS)-2-(2-methylpyrimidin-5-yl)-3,3,-dimethylbutanoate], for which the mortality at 500 ppm was 80 to 100% in test [1]; 80 to 100% in [2]; 80 to 100% in test [3]; 50 to 79% in test [4]; under 50% in [5]; 80 to 100% in test [6]. The mortality at 500 ppm in test [7], in test [8] and in [9] was 80 to 100% in each case. Further, the pest or weed control at 500 ppm in test [10] fell in the range of 80 to 100%.
For `COCc1c(F)c(F)c(COC(=O)C(c2cnc(C3CC3)nc2)C(C)(C)C)c(F)c1F` (racemic) [Compound 135, 2,3,5,6-tetrafluoro-4-(methoxymethyl)benzyl (RS)-2-(2-cyclopropylpyrimidin-5-yl)-3,3-dimethylbutanoate], the mortality at 500 ppm in test [1] is 80 to 100%; in [2], 80 to 100%; in test [3], 80 to 100%; in test [4], under 50%; in test [5], 80 to 100%; in test [6], 80 to 100%. The mortality at 500 ppm is 80 to 100% in [7], under 50% in test [8] and 80 to 100% in test [9]. Besides, the pest or weed control at 500 ppm in test [10] lay in the range of 80 to 100%.

(Values after US4962109A, “Insecticidally and acaricidally active pyrimidine esters and intermediates therefor” (Imperial Chemical Industries PLC, priority 1985, dated 1990).)
